Experimental data: patent publication EP3046573B1, “AMYLIN ANALOGUES” (Zealand Pharma A/S, priority 2013, dated 2015)
Where two headings read alike, the source gives them in different places. Numbered stars: 1 amine (or outer) side, 2 acyl side, 3 side chain; on linkers, the order of the positions; unused ones are H or OH. Bridge positions count the residues as written; N and C are the ends. Square brackets hold non-standard residues; d marks the D form. Peptide text beside a SMILES is read from it. * marks the point of attachment. Pro(trans-4-Ph) = O=C(O)[C@@H]1C[C@@H](c2ccccc2)CN1; Pro(4R-Bn) = O=C(O)[C@@H]1C[C@@H](Cc2ccccc2)CN1; C20 diacid = O=C(O)CCCCCCCCCCCCCCCCCCC(=O)*; γGlu = O=C(O)[C@H](CCC(=O)[*:2])N[*:1]; NMeI = CC[C@H](C)[C@H](NC)C(=O)O; Sar = CNCC(=O)O

What was measured:
[1] = target: T1, human calcitonin receptor (hCTR2) (Homo sapiens, UniProt P30988); test: hCTR2 assay: induction of cAMP (AlphaScreen cAMP Assay kit) in COS7 cells expressing hCTR2; format: cell-based
T1 construct: expressed in transfected cells
T1 sequence (P30988 25-474): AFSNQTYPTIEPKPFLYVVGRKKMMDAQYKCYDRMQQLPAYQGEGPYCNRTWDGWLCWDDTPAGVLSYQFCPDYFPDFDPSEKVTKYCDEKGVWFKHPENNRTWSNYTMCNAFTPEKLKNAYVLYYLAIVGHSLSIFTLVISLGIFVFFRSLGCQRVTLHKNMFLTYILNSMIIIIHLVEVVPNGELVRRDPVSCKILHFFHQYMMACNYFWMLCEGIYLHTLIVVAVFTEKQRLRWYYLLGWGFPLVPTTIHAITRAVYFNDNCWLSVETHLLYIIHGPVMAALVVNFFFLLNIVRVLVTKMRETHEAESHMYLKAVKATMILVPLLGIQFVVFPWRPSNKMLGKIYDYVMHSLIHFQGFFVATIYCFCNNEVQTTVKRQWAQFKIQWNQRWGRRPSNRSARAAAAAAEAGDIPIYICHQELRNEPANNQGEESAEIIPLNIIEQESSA
Outline: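 cAMP read-out by AlphaScreen after cell lysis; EC50 and % efficacy vs pramlintide from 4-parameter logistic fitting. Agonist stimulation: hCTR2-COS7 stable cells, 15 min, 37° C, 100 µM IBMX, 0.1% casein, Tyrode/HEPES pH 7.4.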

[2] = target: T2, human amylin receptor 3 (hAMYR3) consisting of hCTR2 co-expressed with human Receptor Activity Modifying Protein 3 (hRAMP3) (Homo sapiens, UniProt O60896+P30988); test: hAMYR3 assay: induction of cAMP (AlphaScreen cAMP Assay kit) in COS7 cells expressing hAMYR3; format: cell-based
T2 construct: expressed in transfected cells
T2 sequence (P30988 25-474): T1 sequence (P30988 25-474)
T2 sequence (O60896 24-148 partner): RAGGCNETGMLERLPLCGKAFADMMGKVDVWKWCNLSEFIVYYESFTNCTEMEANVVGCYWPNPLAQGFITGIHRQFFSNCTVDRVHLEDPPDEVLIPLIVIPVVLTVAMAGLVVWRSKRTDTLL
Outline: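 cAMP accumulation read by AlphaScreen in lysates of RAMP-naive COS7 cells stably transfected with hCTR2 plus hRAMP3. Cells exposed to peptide dilutions for 15 min, 37° C, with 100 µM IBMX; 4PL fitting gave EC50 and efficacy relative to pramlintide.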

[3] = Solubility assessment (turbidity absorbance at 325 nm); format: physicochemical; details: stock 2 mg/ml diluted 1:1, ambient temperature (typically 25°C), n=1; for Solubility, Acetate buffer pH 4: 100 mM acetate buffer pH 4.0; for Solubility, Acetate buffer pH 5: 100 mM acetate buffer pH 5.0; for Solubility, Histidine buffer pH 6: 100 mM histidine buffer pH 6.0; for Solubility, Histidine buffer pH 7: 100 mM histidine buffer pH 7.0; for Solubility, Phosphate buffer pH 6: 100 mM phosphate buffer pH 6.0; for Solubility, Phosphate buffer pH 7: 100 mM phosphate buffer pH 7.0; for Solubility, Phosphate buffer pH 7.5: 100 mM phosphate buffer pH7.5
Outline: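 Read-out: turbidity as absorbance at 325 nm (280 nm also read), single samples, ambient temperature of typically 25°C. Samples were a 1:1 mix of 2 mg/ml stock (water, pH 2.5) with 100 mM acetate, histidine or phosphate buffers spanning pH 4.0–7.5. Cut-off: A325 ≤ 0.02 indicates ≥ 1 mg/ml.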

| SMILES | EC50 [1] [nM] | EC50 [2] [nM] | Solubility, Acetate buffer pH 4 [3] | Solubility, Acetate buffer pH 5 [3] | Solubility, Histidine buffer pH 6 [3] | Solubility, Histidine buffer pH 7 [3] | Solubility, Phosphate buffer pH 6 [3] | Solubility, Phosphate buffer pH 7 [3] | Solubility, Phosphate buffer pH 7.5 [3] | EC50 ([1]; cAMP induction in COS7 cells expressing hCTR2, average of a minimum of 3 determinations, read-out: hCTR2 EC50) [nM] | EC50 ([2]; cAMP induction in COS7 cells expressing hAMYR3, average of a minimum of 3 determinations, read-out: hAMY R3 EC50) [nM] |
| --- | --- | --- | --- | --- | --- | --- | --- | --- | --- | --- | --- |
| CC[C@H](C)[C@@H](C(=O)N[C@@H](CC(C)C)C(=O)N[C@@H](CO)C(=O)N[C@@H](CO)C(=O)N[C@H](C(=O)N[C@@H](CC(N)=O)C(=O)N[C@H](C(=O)NCC(=O)N[C@@H](CO)C(=O)N[C@@H](CC(N)=O)C(=O)N[C@H](C(=O)N1C[C@H](c2ccccc2)C[C@H]1C(N)=O)[C@@H](C)O)C(C)C)[C@@H](C)O)N(C)C(=O)[C@H](C)NC(=O)CN(C)C(=O)[C@H](Cc1ccccc1)NC(=O)[C@H](CC(N)=O)NC(=O)[C@H](CC(N)=O)NC(=O)[C@H](CO)NC(=O)[C@H](CO)NC(=O)[C@H](CCCNC(=N)N)NC(=O)[C@H](Cc1c[nH]cn1)NC(=O)[C@H](CC(C)C)NC(=O)[C@H](Cc1ccccc1)NC(=O)[C@H](CCC(=O)O)NC(=O)[C@H](C)NC(=O)[C@H](CC(C)C)NC(=O)[C@H](CCCNC(=N)N)NC(=O)[C@H](CCC(N)=O)NC(=O)[C@@H](NC(=O)[C@H](C)NC(=O)[C@@H]1CSSC[C@H](NC(=O)[C@H](CCCNC(=N)N)NC(=O)CC[C@H](NC(=O)CCCCCCCCCCCCCCCCCCC(=O)O)C(=O)O)C(=O)N[C@@H](CC(N)=O)C(=O)N[C@@H]([C@@H](C)O)C(=O)N[C@@H](C)C(=O)N[C@@H]([C@@H](C)O)C(=O)N1)[C@@H](C)O [Compound 112, [19CD]-isoGlu-RC()NTATC()ATQRLAEFLHRSSNNF-Gly(Me)-A-Ile(Me)-LSSTNVGSNT-Php-NH2] ({C20 diacid-γGlu}-RCNTATCATQRLAEFLHRSSNNF[Sar]A[NMeI]LSSTNVGSNT[Pro(trans-4-Ph)]-NH2; disulfide 2-7) | 0.16 | 0.15 | SS (SS indicates solubility ≥ 1mg/ml) | SS (SS indicates solubility ≥ 1mg/ml) | SS (SS indicates solubility ≥ 1mg/ml) | II (II indicates solubility ≤ 1 mg/ml) | II (II indicates solubility ≤ 1 mg/ml) | SS (SS indicates solubility ≥ 1mg/ml) | II (II indicates solubility ≤ 1 mg/ml) |  |  |
| CC[C@H](C)[C@@H](C(=O)N[C@@H](CC(C)C)C(=O)N[C@@H](CO)C(=O)N[C@@H](CO)C(=O)N[C@H](C(=O)N[C@@H](CC(N)=O)C(=O)N[C@H](C(=O)NCC(=O)N[C@@H](CO)C(=O)N[C@@H](CC(N)=O)C(=O)N[C@H](C(=O)N1C[C@H](Cc2ccccc2)C[C@H]1C(N)=O)[C@@H](C)O)C(C)C)[C@@H](C)O)N(C)C(=O)[C@H](C)NC(=O)CN(C)C(=O)[C@H](Cc1ccccc1)NC(=O)[C@H](CC(N)=O)NC(=O)[C@H](CC(N)=O)NC(=O)[C@H](CO)NC(=O)[C@H](CO)NC(=O)[C@H](CCCNC(=N)N)NC(=O)[C@H](Cc1c[nH]cn1)NC(=O)[C@H](CC(C)C)NC(=O)[C@H](Cc1ccccc1)NC(=O)[C@H](CCC(=O)O)NC(=O)[C@H](C)NC(=O)[C@H](CC(C)C)NC(=O)[C@H](CCCNC(=N)N)NC(=O)[C@H](CCC(N)=O)NC(=O)[C@@H](NC(=O)[C@H](C)NC(=O)[C@@H]1CSSC[C@H](NC(=O)[C@H](CCCNC(=N)N)NC(=O)CC[C@H](NC(=O)CCCCCCCCCCCCCCCCCCC(=O)O)C(=O)O)C(=O)N[C@@H](CC(N)=O)C(=O)N[C@@H]([C@@H](C)O)C(=O)N[C@@H](C)C(=O)N[C@@H]([C@@H](C)O)C(=O)N1)[C@@H](C)O [Compound 114, [19CD]-isoGlu-RC()NTATC()ATQRLAEFLHRSSNNF-Gly(Me)-A-Ile(Me)-LSSTNVGSNT-Bep-NH2] ({C20 diacid-γGlu}-RCNTATCATQRLAEFLHRSSNNF[Sar]A[NMeI]LSSTNVGSNT[Pro(4R-Bn)]-NH2; disulfide 2-7) | 0.21 | 0.18 | SS (SS indicates solubility ≥ 1mg/ml) | SS (SS indicates solubility ≥ 1mg/ml) | SS (SS indicates solubility ≥ 1mg/ml) | II (II indicates solubility ≤ 1 mg/ml) | II (II indicates solubility ≤ 1 mg/ml) | II (II indicates solubility ≤ 1 mg/ml) | II (II indicates solubility ≤ 1 mg/ml) |  |  |
| CC[C@H](C)[C@@H](C(=O)N[C@@H](CC(C)C)C(=O)N[C@@H](CO)C(=O)N[C@@H](CO)C(=O)N[C@H](C(=O)N[C@@H](CC(N)=O)C(=O)N[C@H](C(=O)NCC(=O)N[C@@H](CO)C(=O)N[C@@H](CC(N)=O)C(=O)N[C@H](C(=O)N[C@@H](Cc1ccccc1)C(N)=O)[C@@H](C)O)C(C)C)[C@@H](C)O)N(C)C(=O)[C@H](C)NC(=O)CN(C)C(=O)[C@H](Cc1ccccc1)NC(=O)[C@H](CC(N)=O)NC(=O)[C@H](CC(N)=O)NC(=O)[C@H](CO)NC(=O)[C@H](CO)NC(=O)[C@H](CCCNC(=N)N)NC(=O)[C@H](Cc1c[nH]cn1)NC(=O)[C@H](CC(C)C)NC(=O)[C@H](Cc1ccccc1)NC(=O)[C@H](CCC(=O)O)NC(=O)[C@H](C)NC(=O)[C@H](CC(C)C)NC(=O)[C@H](CCCNC(=N)N)NC(=O)[C@H](CCC(N)=O)NC(=O)[C@@H](NC(=O)[C@H](C)NC(=O)[C@@H]1CSSC[C@H](NC(=O)[C@H](CCCNC(=N)N)NC(=O)CC[C@H](NC(=O)CCCCCCCCCCCCCCCCCCC(=O)O)C(=O)O)C(=O)N[C@@H](CC(N)=O)C(=O)N[C@@H]([C@@H](C)O)C(=O)N[C@@H](C)C(=O)N[C@@H]([C@@H](C)O)C(=O)N1)[C@@H](C)O [Compound 115, [19CD]-isoGlu-RC()NTATC()ATQRLAEFLHRSSNNF-Gly(Me)-A-Ile(Me)-LSSTNVGSNTF-NH2] ({C20 diacid-γGlu}-RCNTATCATQRLAEFLHRSSNNF[Sar]A[NMeI]LSSTNVGSNTF-NH2; disulfide 2-7) | 0.47 | 0.37 | SS (SS indicates solubility ≥ 1mg/ml) | SS (SS indicates solubility ≥ 1mg/ml) | SS (SS indicates solubility ≥ 1mg/ml) | II (II indicates solubility ≤ 1 mg/ml) | II (II indicates solubility ≤ 1 mg/ml) | SS (SS indicates solubility ≥ 1mg/ml) | II (II indicates solubility ≤ 1 mg/ml) |  |  |
| CC[C@H](C)[C@@H](C(=O)N[C@@H](CC(C)C)C(=O)N[C@@H](CO)C(=O)N[C@@H](CO)C(=O)N[C@H](C(=O)N[C@@H](CCC(=O)O)C(=O)N[C@H](C(=O)NCC(=O)N[C@@H](CO)C(=O)N[C@@H](CCC(=O)O)C(=O)N[C@H](C(=O)N1CCC[C@H]1C(N)=O)[C@@H](C)O)C(C)C)[C@@H](C)O)N(C)C(=O)[C@H](C)NC(=O)CN(C)C(=O)[C@H](Cc1ccccc1)NC(=O)[C@H](CO)NC(=O)[C@H](CO)NC(=O)[C@H](CO)NC(=O)[C@H](CO)NC(=O)[C@H](CCCNC(=N)N)NC(=O)[C@H](Cc1c[nH]cn1)NC(=O)[C@H](CC(C)C)NC(=O)[C@H](Cc1ccccc1)NC(=O)[C@H](CCC(=O)O)NC(=O)[C@H](C)NC(=O)[C@H](CC(C)C)NC(=O)[C@H](CCCNC(=N)N)NC(=O)[C@H](CCC(=O)O)NC(=O)[C@@H](NC(=O)[C@H](C)NC(=O)[C@@H]1CSSC[C@H](NC(=O)[C@H](CCCNC(=N)N)NC(=O)CC[C@H](NC(=O)CCCCCCCCCCCCCCCCCCC(=O)O)C(=O)O)C(=O)N[C@@H](CC(N)=O)C(=O)N[C@@H]([C@@H](C)O)C(=O)N[C@@H](C)C(=O)N[C@@H]([C@@H](C)O)C(=O)N1)[C@@H](C)O [Compound 119, [19CD]-isoGlu-RC()NTATC()ATERLAEFLHRSSSSF-Gly(Me)-A-Ile(Me)-LSSTEVGSETP-NH2] ({C20 diacid-γGlu}-RCNTATCATERLAEFLHRSSSSF[Sar]A[NMeI]LSSTEVGSETP-NH2; disulfide 2-7) |  |  | SS (SS indicates solubility ≥ 1mg/ml) | SS (SS indicates solubility ≥ 1mg/ml) | SS (SS indicates solubility ≥ 1mg/ml) | SS (SS indicates solubility ≥ 1mg/ml) | SS (SS indicates solubility ≥ 1mg/ml) | SS (SS indicates solubility ≥ 1mg/ml) | SS (SS indicates solubility ≥ 1mg/ml) | 0.17 | 0.3 |
